Data as given in patent US8258151B2, “3-aminoimidazo [1,2-A] pyridine derivatives as SGLT inhibitors” (Merck Patent GmbH, priority 2006, dated 2012).

Legend:
SGLT2 = molecular target: T1, SGLT2 (Homo sapiens, UniProt P31639); test: SGLT2 activity measurement: 14C-AMG uptake in BHK cells transfected with SGLT2; type: cell-based; conditions: AMG 2 mM, 37° C., 90 min
T1 construct: expressed in transfected cells
T1 sequence (P31639 1-672): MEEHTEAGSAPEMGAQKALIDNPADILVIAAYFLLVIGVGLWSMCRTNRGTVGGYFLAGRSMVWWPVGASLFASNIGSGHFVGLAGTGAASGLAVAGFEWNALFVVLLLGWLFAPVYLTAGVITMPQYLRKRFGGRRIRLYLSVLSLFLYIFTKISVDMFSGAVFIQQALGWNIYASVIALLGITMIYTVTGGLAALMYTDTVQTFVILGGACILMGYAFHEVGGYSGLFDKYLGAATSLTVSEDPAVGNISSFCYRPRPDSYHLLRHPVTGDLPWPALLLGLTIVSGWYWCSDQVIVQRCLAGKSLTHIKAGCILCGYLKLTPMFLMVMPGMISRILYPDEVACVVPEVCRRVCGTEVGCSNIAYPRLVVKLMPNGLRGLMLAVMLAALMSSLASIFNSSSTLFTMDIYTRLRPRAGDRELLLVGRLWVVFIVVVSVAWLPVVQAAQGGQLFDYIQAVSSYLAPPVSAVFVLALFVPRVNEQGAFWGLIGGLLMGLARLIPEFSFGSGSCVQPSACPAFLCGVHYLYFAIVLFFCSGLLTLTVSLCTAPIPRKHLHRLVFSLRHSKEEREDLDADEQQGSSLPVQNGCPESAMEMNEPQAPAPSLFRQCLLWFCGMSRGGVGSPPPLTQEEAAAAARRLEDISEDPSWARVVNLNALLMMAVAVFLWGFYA
Summary of the method: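 BHK21 cells stably expressing human SGLT2 took up 14C-AMG (added as 2 mM solution) ± compound for 90 min at 37 °C in Na+-containing HEPES/Tris buffer, pH 7.4. Uptake was measured by scintillation counting after lysis. Non-specific uptake was defined in sodium-free sucrose buffer.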

SGLT1 = molecular target: T2, SGLT1 (Homo sapiens, UniProt P13866); test: SGLT1 activity measurement: 14C-AMG uptake in BHK cells transfected with SGLT1; type: cell-based; conditions: AMG 50 μM, 37° C., 90 min
T2 construct: expressed in transfected cells
T2 sequence (P13866 1-664): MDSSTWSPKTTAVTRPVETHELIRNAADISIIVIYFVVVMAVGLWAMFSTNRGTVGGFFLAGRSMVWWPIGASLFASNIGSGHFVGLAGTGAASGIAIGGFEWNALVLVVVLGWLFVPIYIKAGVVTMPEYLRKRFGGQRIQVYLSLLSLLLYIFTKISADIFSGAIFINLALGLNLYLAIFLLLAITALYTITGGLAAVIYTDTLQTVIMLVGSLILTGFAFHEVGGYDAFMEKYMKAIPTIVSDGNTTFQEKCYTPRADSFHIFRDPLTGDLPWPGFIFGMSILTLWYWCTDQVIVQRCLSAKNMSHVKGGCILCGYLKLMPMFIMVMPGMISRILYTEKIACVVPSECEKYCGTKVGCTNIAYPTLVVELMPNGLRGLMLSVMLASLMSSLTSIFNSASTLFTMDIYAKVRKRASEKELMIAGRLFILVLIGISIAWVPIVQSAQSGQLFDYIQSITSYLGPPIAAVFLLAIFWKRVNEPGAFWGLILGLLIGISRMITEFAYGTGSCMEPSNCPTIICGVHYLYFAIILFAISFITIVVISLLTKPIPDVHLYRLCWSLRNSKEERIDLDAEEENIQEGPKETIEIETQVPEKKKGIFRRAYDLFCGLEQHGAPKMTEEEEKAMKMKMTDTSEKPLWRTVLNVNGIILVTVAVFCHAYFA
Summary of the method: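 BHK21 cells stably transfected with human SLC5A1 were incubated with 14C-AMG (added solution at 50 μM) ± compound for 90 min at 37 °C. The buffer was 140 mM NaCl, HEPES/Tris, pH 7.4. Lysed-cell radioactivity was counted by scintillation, and non-specific uptake was measured in sodium-free sucrose buffer.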

CCc1cccc(OCC(N)=O)c1-c1nc2ccc(F)cn2c1Nc1c(C)cccc1C [Compound A240, 2-[2-(Aminocarbonylmethoxy)-6-ethylphenyl]-3-(2,6-dimethylphenylamino)-6-fluoroimidazo-[1,2-a]pyridine]
IC50 (SGLT2): 10 to 1000 nM
IC50 (SGLT1): 1 to 10 µM

Cc1cccc(C)c1Nc1c(-c2c(C)cccc2OCC(N)=O)nc2ccc(F)cn12 [Compound A2, 2-[2-(aminocarbonylmethoxy)-6-methylphenyl]-3-(2,6-dimethylphenylamino)-6-fluoroimidazo[1,2-a]pyridine]
IC50 (SGLT2): 10 to 1000 nM
IC50 (SGLT1): 1 to 10 µM

CCc1cc(OCCOC)cc(OCC(N)=O)c1-c1nc2ccc(F)cn2c1Nc1c(C)cccc1C [Compound A187, 2-[2-(Aminocarbonylmethoxy)-4-(2-methoxy-ethoxy)-6-ethylphenyl]-3-(2,6-dimethylphenyl-amino)-6-fluoroimidazo[1,2-a]pyridine]
IC50 (SGLT2): 10 to 1000 nM
IC50 (SGLT1): > 10 µM

COc1cc(C)c(-c2nc3ccc(F)cn3c2Nc2c(C)cc([N+](=O)[O-])cc2C)c(OCC(N)=O)c1 [Compound A254, 2-[2-(Aminocarbonylmethoxy)-4-methoxy-6-methylphenyl]-3-(2,6-dimethyl-4-nitrophenyl-amino)-6-fluoroimidazo[1,2-a]pyridine]
IC50 (SGLT2): 10 to 1000 nM
IC50 (SGLT1): > 10 µM

COc1cc(C)c(-c2nc3ccc(F)cn3c2Nc2c(C)cc(C)cc2[N+](=O)[O-])c(OCC(N)=O)c1 [Compound A250, 2-[2-(Aminocarbonylmethoxy)-4-methoxy-6-methylphenyl]-3-(2,4-dimethyl-6-nitrophenyl-amino)-6-fluoroimidazo[1,2-a]pyridine]
IC50 (SGLT2): 10 to 1000 nM
IC50 (SGLT1): > 10 µM

COc1cc(C)c(-c2nc3ccc(F)cn3c2Nc2c(Cl)cccc2Cl)c(OCC(N)=O)c1 [Compound A205, 2-[2-(Aminocarbonylmethoxy)-4-methoxy-6-methylphenyl]-3-(2,6-dichlorophenylamino)-6-fluoroimidazo[1,2-a]pyridine]
IC50 (SGLT2): 10 to 1000 nM
IC50 (SGLT1): 1 to 10 µM

COc1ccc(-c2nc3ccccn3c2Nc2c(C)cccc2C)c(OCC(N)=O)c1 [Compound A14, 2-[2-(Aminocarbonylmethoxy)-4-methoxy-phenyl]-3-(2,6-dimethylphenylamino)imidazo-[1,2-a]pyridine]
IC50 (SGLT2): 10 to 1000 nM
IC50 (SGLT1): > 10 µM

COc1ccc(-c2nc3ccccn3c2Nc2c(Cl)cccc2Cl)c(OCC(N)=O)c1 [Compound A16, 2-[2-(Aminocarbonylmethoxy)-4-methoxy-phenyl]-3-(2,6-dichlorophenylamino)imidazo-[1,2-a]pyridine]
IC50 (SGLT2): 10 to 1000 nM
IC50 (SGLT1): 1 to 10 µM

CCc1cc(OC)cc(OCC(N)=O)c1-c1nc2c(N)cccn2c1Nc1c(C)cccc1C [Compound A192, 2-[2-(Aminocarbonylmethoxy)-4-methoxy-6-ethylphenyl]-3-(2,6-dimethylphenylamino)-8-aminoimidazo[1,2-a]pyridine]
IC50 (SGLT2): 10 to 1000 nM
IC50 (SGLT1): > 10 µM

COc1cccc(OCC(N)=O)c1-c1nc2ccc(F)cn2c1Nc1c(C)cccc1C [Compound A1, 2-[2-(aminocarbonylmethoxy)-6-methoxyphenyl]-3-(2,6-dimethylphenylamino)-6-fluoroimidazo[1,2-a]pyridine]
IC50 (SGLT2): 10 to 1000 nM
IC50 (SGLT1): 1 to 10 µM

Cc1cccc(C)c1Nc1c(-c2ccc([N+](=O)[O-])cc2OCC(N)=O)nc2ccccn12 [Compound A179, 2-[2-(Aminocarbonylmethoxy)-4-nitrophenyl]-3-(2,6-dimethylphenylamino)imidazo[1,2-a]pyridine]
IC50 (SGLT2): 10 to 1000 nM
IC50 (SGLT1): > 10 µM

Cc1cccc(C)c1Nc1c(-c2c(C)cc(OCC(O)CO)cc2OCC(N)=O)nc2ccc(F)cn12 (stereo not shown) [Compound A208, 2-[2-(Aminocarbonylmethoxy)-4-(2,3-dihydroxy-propoxy)-6-methylphenyl]-3-(2,6-dimethylphenyl-amino)-6-fluoroimidazo[1,2-a]pyridine]
IC50 (SGLT2): 10 to 1000 nM
IC50 (SGLT1): > 10 µM

CCc1cc(OC)cc(OCC(N)=O)c1-c1nc2ccc(F)cn2c1Nc1c(C)cc(C(=O)OC)cc1C [Compound A245, 2-[2-(Aminocarbonylmethoxy)-4-methoxy-6-ethylphenyl]-3-(2,6-dimethyl-4-methoxycarbonyl-phenylamino)-6-fluoroimidazo[1,2-a]pyridine]
IC50 (SGLT2): 1000 to 10000 nM
IC50 (SGLT1): > 10 µM

Cc1cccc(C(C)C)c1Nc1c(-c2ccccc2OCC(N)=O)nc2ccccn12 [Compound A7, 2-[2-(Aminocarbonylmethoxy)phenyl]-3-(2-isopropyl-6-methylphenylamino)imidazo-[1,2-a]pyridine]
IC50 (SGLT2): 1000 to 10000 nM
IC50 (SGLT1): > 10 µM

Cc1cccc(C)c1Nc1c(-c2c(C)cc(OCC(N)=O)cc2OCC(N)=O)nc2ccccn12 [Compound A170, 2-[2-(Aminocarbonylmethoxy)-4-(amino-carbonylmethoxy)-6-methylphenyl]-3-(2,6-dimethylphenylamino)imidazo[1,2-a]pyridine]
IC50 (SGLT2): 10 to 1000 nM
IC50 (SGLT1): 1 to 10 µM

CCc1cc(OC)cc(OCC(N)=O)c1-c1nc2ccc(F)cn2c1Nc1c(C)cccc1Cl [Compound A257, 2-[2-(Aminocarbonylmethoxy)-4-methoxy-6-ethylphenyl]-3-(2-chloro-6-methylphenylamino)-6-fluoroimidazo[1,2-a]pyridine]
IC50 (SGLT2): 10 to 1000 nM
IC50 (SGLT1): 1 to 10 µM

Cc1cccc(C)c1Nc1c(-c2c(C)cc(OCc3ccccc3)cc2OCC(N)=O)nc2ccccn12 [Compound A173, 2-[2-(Aminocarbonylmethoxy)-4-benzyloxy-6-methylphenyl]-3-(2,6-dimethylphenylamino)-imidazo[1,2-a]pyridine]
IC50 (SGLT2): > 10000 nM
IC50 (SGLT1): > 10 µM

Cc1cccc(C)c1Nc1c(-c2ccccc2OCC(N)=O)nc2ccc(C#N)cn12 [Compound A209, 2-[2-(Aminocarbonylmethoxy)phenyl]-3-(2,6-dimethylphenylamino)-6-cyanoimidazo[1,2-a]-pyridine]
IC50 (SGLT2): 1000 to 10000 nM
IC50 (SGLT1): > 10 µM

Cc1cccc(C)c1Nc1c(-c2ccccc2OCC(N)=O)nc2cccc(C)n12 [Compound A9, 2-[2-(Aminocarbonylmethoxy)phenyl]-3-(2,6-di-methylphenylamino)-5-methylimidazo[1,2-a]-pyridine]
IC50 (SGLT2): 10 to 1000 nM
IC50 (SGLT1): > 10 µM

Cc1cccc(C)c1Nc1c(-c2ccccc2OCC(N)=O)nc2cc(C#N)ccn12 [Compound A210, 2-[2-(Aminocarbonylmethoxy)phenyl]-3-(2,6-dimethylphenylamino)-7-cyanoimidazo[1,2-a]-pyridine]
IC50 (SGLT2): > 10000 nM
IC50 (SGLT1): > 10 µM

COc1cc(OCC(N)=O)c(-c2nc3ccc(F)cn3c2Nc2c(C)cccc2C)c(C)c1Cl [Compound A231, 2-[2-(Aminocarbonylmethoxy)-5-chloro-4-methoxy-6-methylphenyl]-3-(2,6-dimethylphenyl-amino)-6-fluoroimidazo[1,2-a]pyridine]
IC50 (SGLT2): 10 to 1000 nM
IC50 (SGLT1): 1 to 10 µM

Cc1cc(C)c(-c2nc3ccc(F)cn3c2Nc2c(C)cccc2C)c(OCC(N)=O)c1 [Compound A169, 2-[2-(Aminocarbonylmethoxy)-4,6-dimethyl-phenyl]-3-(2,6-dimethylphenylamino)-6-fluoro-imidazo[1,2-a]pyridine]
IC50 (SGLT2): 10 to 1000 nM
IC50 (SGLT1): 1 to 10 µM

Cc1cccc(C)c1Nc1c(-c2c(OCC(N)=O)ccc3ccccc23)nc2ccccn12 [Compound A181, 2-{1-[3-(2,6-Dimethylphenylamino)imidazo-[1,2-a]pyridin-2-yl]naphthalen-2-yloxy}acetamide]
IC50 (SGLT2): 10 to 1000 nM
IC50 (SGLT1): 1 to 10 µM
